Our source for the inhibition values is ChEMBL document CHEMBL3259674, “Structure-Activity Relationship of Semicarbazone EGA Furnishes Photoaffinity Inhibitors of Anthrax Toxin Cellular Entry” (ACS Med Chem Lett, 2014).

Assay [1] has as its target T1, Antrax lethal toxin (Bacillus anthracis) (UniProt P15917+P13423). The experiment in a line: Reversible inhibition of Bacillus anthracis lethal toxin-induced mouse RAW264.7 cell death at 25 uM preincubated for 1 hr followed by compound washout measured 4 hrs post lethal toxin challenge. The format is protein-complex assay.
Assay [2] concerns the target T1, Antrax lethal toxin (Bacillus anthracis). The experiment in a line: Irreversible inhibition of Bacillus anthracis lethal toxin-induced mouse RAW264.7 cell death at 25 uM preincubated for 1 hr followed by UV irradiation measured after 5 mins. It is filed as protein-complex assay.
The target is the same in assay [3]. The following applies: RAW264.7, at 25 µM.
Assay [4] has the same target. The experiment in a line: Reversible inhibition of Bacillus anthracis lethal toxin-induced mouse RAW264.7 cell death at 12.5 uM preincubated for 1 hr followed by compound washout measured 4 hrs post lethal toxin challenge. The format is protein-complex assay.
For assay [5] the target is unchanged. The experiment in a line: Irreversible inhibition of Bacillus anthracis lethal toxin-induced mouse RAW264.7 cell death at 12.5 uM preincubated for 1 hr followed by UV irradiation measured after 5 mins. The format is protein-complex assay.

Each structure is given as a SMILES string. Activity calls are given as the source filed them. No cut-off for these calls is given here.

Consider `Cc1cccc(C)c1NC(=O)N/N=C/c1c(F)c(F)c(N=[N+]=[N-])c(F)c1F`, for which the inhibition result in assay [1] and in assay [2] was “Active” each time.

On to `Cc1ccccc1/C=N/NC(=O)Nc1c(C)cccc1C`, for which the inhibition result in assay [3] was “inactive”.

Regarding `Cc1cccc(C)c1NC(=O)N/N=C/c1ccco1`, in assay [3], the inhibition entry is “inactive”.

Regarding `Cc1cccc(C)c1NC(=S)N/N=C/c1ccc(Br)cc1F`, the inhibition result in assay [3] was “inactive”.

Regarding `COc1cc(OC)c(/C=N/NC(=O)Nc2c(C)cccc2C)c(OC)c1`, the inhibition entry in assay [3] is “inactive”.

On to `CC(C)(C)NC(=O)N/N=C/c1ccc(Br)cc1`, for which the inhibition result in assay [3] is “inactive”.

Consider `Cc1cccc(C)c1NC(=O)N/N=C/c1ccncc1`, for which the inhibition entry in assay [3] is “inactive”.

Turning to `O=C(N/N=C/c1ccc(Cl)cc1)Nc1ccccc1`, the inhibition entry in assay [3] is “inactive”.

With `C#CCN(/N=C/c1ccc(N=[N+]=[N-])cc1)C(=O)Nc1c(C)cccc1C`, in assay [3], the inhibition entry was “inactive”.

As for `Cc1cccc(C)c1NC(=O)NN`, in assay [3], the inhibition entry was “inactive”.

Turning to `Cc1cccc(C)c1NC(=O)N/N=C/c1ccc(N=[N+]=[N-])cc1`, the inhibition result in assay [1] and in assay [2] was “Active” throughout.

Regarding `Cc1cccc(C)c1NC(=O)N/N=C/c1ccc(NS(C)(=O)=O)cc1`, the inhibition entry in assay [3] was “inactive”.

For the compound `COc1cccc(/C=N/NC(=O)Nc2c(C)cccc2C)c1OC`, the inhibition entry in assay [3] was “inactive”.

Take `Cc1ccc(NC(=O)N/N=C/c2ccc(Br)cc2)c(C)c1`: in assay [3], the inhibition entry was “inactive”.

Take `Cc1cccc(C)c1NC(=S)N/N=C/c1c(F)cc(Br)cc1F`: the inhibition result in assay [3] is “inactive”.

Turning to `Cc1cccc(C)c1NC(=O)N/N=C/c1ccccc1`, in assay [3], the inhibition result is “inactive”.

As to `Cc1cccc(C)c1NC(=O)N/N=C/c1cccc(C(F)(F)F)c1Cl`, the inhibition entry in assay [3] was “inactive”.

Take `Cc1cccc(C)c1NC(=O)N/N=C/c1ccc(N=[N+]=[N-])cc1F`: the inhibition result in assay [4] is “Active”. Moreover, the inhibition result in assay [5] is “inactive”.
